Test results: patent US20250034135A1, “ANTI-APOPTOTIC PROTEIN BCL-2 INHIBITOR, PHARMACEUTICAL COMPOSITION AND USES THEREOF” (HANGZHOU HEALZEN THERAPEUTICS CO., LTD., priority 2021, published 2025)
pIC50: −log10 of the molar value.

Molecular target: BCL2 (Homo sapiens (Human), UniProt P10415)
Assay: Molecular level activity test of anti-apoptotic protein BCL2 (HTRF, binding to Bim peptide)
Details: HTRF, binding of BCL2 to Bim peptide; read-out: BCL2 nM (inhibitory activity, IC50)
Outline: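 Step one: compound, supplied in 2% DMSO, is mixed with His-tagged BCL2 and biotinylated Bim peptide and reacted for 1 h. Step two: anti-His and streptavidin-XL665 reagents in detection buffer are added. Step three: after a 4 h room-temperature incubation, time-resolved fluorescence is measured.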

BCL2, sequence (P10415 whole entry): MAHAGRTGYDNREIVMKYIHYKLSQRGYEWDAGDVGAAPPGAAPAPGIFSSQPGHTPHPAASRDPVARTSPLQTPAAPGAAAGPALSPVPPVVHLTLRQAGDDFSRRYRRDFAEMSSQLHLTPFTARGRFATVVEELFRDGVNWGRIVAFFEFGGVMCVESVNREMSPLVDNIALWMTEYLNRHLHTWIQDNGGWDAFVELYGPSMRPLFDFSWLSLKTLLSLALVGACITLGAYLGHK

pIC50, > 8.00:
CC(C)c1ccccc1[C@@H]1CCCN1C1CC2(CCN(c3ccc(C(=O)NS(=O)(=O)c4cc([N+](=O)[O-])c(NCC5(F)CCN(C(C)C)CC5)c5[nH]cnc45)c(N4CCCOc5nc6[nH]ccc6cc54)c3)CC2)C1 [compound 086, (S)-2-(3,4-dihydro-2H-pyrrolo[3′,2′:5,6]pyridino[2,3-b][1,4]oxazacyclohept-1 (7H)-yl)-N-((7-(((4-fluoro-1-isopropylpiperid-4-yl)methyl)amino)-6-nitro-1H-benzo[d]imidazol-4-yl)sulfonyl)-4-(2-(2-(2-isopropylphenyl)pyrrolidin-1-yl)-7-azaspiro[3.5]non-7-yl)benzamide]
COc1ccc(CN2CCN(C3CC4(C3)CN(c3cc(Oc5cnc6[nH]ccc6c5)c(C(=O)NS(=O)(=O)c5ccc(NC[C@H]6CC[C@](C)(O)CC6)c([N+](=O)[O-])c5)cc3F)C4)C(c3ccccc3C(C)C)C2)cc1 (some centres unmarked) [compound 056, 2-((1H-pyrrolo[2,3-b]pyrid-5-yl)oxy)-5-fluoro-N-((4-((((1r,4r)-4-hydroxy-4-methylcyclohexyl)methyl)amino)-3-nitrophenyl)sulfonyl)-4-(6-(2-(2-isopropylphenyl)-4-(4-methoxybenzyl)piperazin-1-yl)-2-azaspiro[3.3]hept-2-yl)benzamide]
COc1ccc(CN2CCN(C3CC4(CCN(c5cc(Oc6cnc7[nH]ccc7c6)c(C(=O)NS(=O)(=O)c6ccc(NCC7(F)CCOCC7)c([N+](=O)[O-])c6)cn5)CC4)C3)C(c3ccccc3C(C)C)C2)cc1 (centres unmarked) [compound 065, 4-((1H-pyrrolo[2,3-b]pyrid-5-yl)oxy)-N-((4-(((4-fluorotetrahydro-2H-pyran-4-yl)methyl)amino)-3-nitrophenyl)sulfonyl)-6-(2-(2-(2-isopropylphenyl)-4-(4-methoxybenzyl)piperazin-1-yl)-7-azaspiro[3.5]non-7-yl) nicotinamide]
COc1ccc(CN2CCN(C3CC4(CCN(c5cc(Oc6cnc7[nH]ccc7c6)c(C(=O)NS(=O)(=O)c6cc([N+](=O)[O-])c(NC[C@H]7CC[C@](C)(O)CC7)c7scnc67)cn5)CC4)C3)[C@H](c3ccccc3C(C)C)C2)cc1 [compound 140, 4-((1H-pyrrolo[2,3-b]pyrid-5-yl)oxy)-N-((7-((((1r, 4r)-4-hydroxy-4-methylcyclohexyl)methyl)amino)-6-nitrobenzo[d]thiazol-4-yl)sulfonyl)-6-(2-((R)-2-(2-isopropylphenyl)-4-(4-methoxybenzyl)piperazin-1-yl)-7-azaspiro[3.5]non-7-yl) nicotinamide]
CC(C)c1ccccc1[C@@H]1CCCN1C1CC2(CCN(c3ccc(C(=O)NS(=O)(=O)c4cc([N+](=O)[O-])c(NCC5(F)CCOCC5)c5[nH]cnc45)c(N4CCOc5nc6[nH]ccc6cc54)c3)CC2)C1 [compound 087, (S)-2-(2,3-dihydropyrrolo[3′,2′:5,6]pyridino[2,3-b][1,4]oxazin-1 (6H)-yl)-N-((7-(((4-fluorotetrahydro-2H-pyran-4-yl)methyl)amino)-6-nitro-1H-benzo[d]imidazol-4-yl)sulfonyl)-4-(2-(2-(2-isopropylphenyl)pyrrolidin-1-yl)-7-azaspiro[3.5]non-7-yl)benzamide]
COc1ccc(CN2CCN(C3CC4(CCN(c5ccc(C(=O)NS(=O)(=O)c6cc([N+](=O)[O-])c(NCC7(F)CCN(C(C)C)CC7)c7[nH]cnc67)c(Oc6cnc7[nH]ccc7c6)c5)CC4)C3)C(c3ccccc3C(C)C)C2)cc1 (centres unmarked) [compound 048, 2-((1H-pyrrolo[2,3-b]pyrid-5-yl)oxy)-N-((7-(((4-fluoro-1-isopropylpiperid-4-yl)methyl)amino)-6-nitro-1H-benzo[d]imidazol-4-yl)sulfonyl)-4-(2-(2-(2-isopropylphenyl)-4-(4-methoxybenzyl)piperazin-1-yl)-7-azaspiro[3.5]non-7-yl)benzamide]
CC(C)c1ccccc1[C@@H]1CCCN1C1CC2(CCN(c3ccc(C(=O)NS(=O)(=O)c4cc([N+](=O)[O-])c(NCC5(F)CCOCC5)c5[nH]cnc45)c(N4CCCOc5nc6[nH]ccc6cc54)c3)CC2)C1 [compound 088, (S)-2-(3,4-dihydro-2H-pyrrolo[3′,2′:5,6]pyridino[2,3-b][1,4]oxazacyclohept-1 (7H)-yl)-N-((7-(((4-fluorotetrahydro-2H-pyran-4-yl)methyl)amino)-6-nitro-1H-benzo[d]imidazol-4-yl)sulfonyl)-4-(2-(2-(2-isopropylphenyl)pyrrolidin-1-yl)-7-azaspiro[3.5]non-7-yl)benzamide]
COc1ccc(CN2CCN(C3CC4(CCN(c5cc(Oc6cnc7[nH]ccc7c6)c(C(=O)NS(=O)(=O)c6cc([N+](=O)[O-])c(NCC7(F)CCOCC7)c7ccoc67)cc5F)CC4)C3)[C@H](c3ccccc3C(C)C)C2)cc1 [compound 143, (R)-2-((1H-pyrrolo[2,3-b]pyrid-5-yl)oxy)-5-fluoro-N-((4-(((4-fluorotetrahydro-2H-pyran-4-yl)methyl)amino)-5-nitrobenzofuran-7-yl)sulfonyl)-4-(2-(2-(2-isopropylphenyl)-4-(4-methoxybenzyl)piperazin-1-yl)-7-azaspiro[3.5]non-7-yl)benzamide]
COc1ccc(CN2CCN(C3CC4(C3)CN(c3cc(Oc5cnc6[nH]ccc6c5)c(C(=O)NS(=O)(=O)c5cc([N+](=O)[O-])c(NCC6(F)CCN(C(C)C)CC6)c6[nH]cnc56)cn3)C4)C(c3ccccc3C(C)C)C2)cc1 (centres unmarked) [compound 070, 4-((1H-pyrrolo[2,3-b]pyrid-5-yl)oxy)-N-((7-(((4-fluoro-1-isopropylpiperid-4-yl)methyl)amino)-6-nitro-1H-benzo[d]imidazol-4-yl)sulfonyl)-6-(6-(2-(2-isopropylphenyl)-4-(4-methoxybenzyl)piperazin-1-yl)-2-azaspiro[3.3]hept-2-yl) nicotinamide]
COc1ccc(CN2CCN(C3CC4(CCN(c5cc(Oc6cnc7[nH]ccc7c6)c(C(=O)NS(=O)(=O)c6cc([N+](=O)[O-])c(NCC7(F)CCOCC7)c7occc67)cc5F)CC4)C3)[C@H](c3ccccc3C(C)C)C2)cn1 [compound 129, (R)-2-((1H-pyrrolo[2,3-b]pyrid-5-yl)oxy)-5-fluoro-N-((7-(((4-fluorotetrahydro-2H-pyran-4-yl)methyl)amino)-6-nitrobenzofuran-4-yl)sulfonyl)-4-(2-(2-(2-isopropylphenyl)-4-((6-methoxypyrid-3-yl)methyl)piperazin-1-yl)-7-azaspiro[3.5]non-7-yl)benzamide]
COc1ccc(CN2CCN(C3CC4(CCN(c5cc(Oc6cnc7[nH]cc(F)c7c6)c(C(=O)NS(=O)(=O)c6ccc(NC[C@H]7CC[C@](C)(O)CC7)c([N+](=O)[O-])c6)cc5F)CC4)C3)C(c3ccccc3C(C)C)C2)cc1 (some centres unmarked) [compound 060, 5-fluoro-2-((3-fluoro-1H-pyrrolo[2,3-b]pyrid-5-yl)oxy)-N-((4-((((1r,4r)-4-hydroxy-4-methylcyclohexyl)methyl)amino)-3-nitrophenyl)sulfonyl)-4-(2-(2-(2-isopropylphenyl)-4-(4-methoxybenzyl)piperazin-1-yl)-7-azaspiro[3.5]non-7-yl)benzamide]
